Assay results as given in patent publication US10047083B2, “Dihydropyrimidinoisoquinolinones and pharmaceutical compositions thereof for the treatment of inflammatory disorders” (GALAPAGOS NV, priority 2011, dated 2018).

Target: T1, GPR84 (Homo sapiens, UniProt Q9NQS5)
T1 construct: expressed in transfected cells; membranes used
Test: GTPγS binding assay (GPR84)
Type: biochemical
Conditions: membranes from stable cell line over expressing GPR84; 3,3′ di indolylmethane at EC80
Method: 1.1. Cell Based Assay: GTp-γS Binding Assay.
The following assay can be used for determination of GPR84 activation.
The assay is performed in a 96 well plate where the following reagents are added. […] In a last step, 30 μL of a mixture consisting of membranes-GTPγS-SpA beads is added [mixture consists of 20 μg/well membranes derived from stable cell line over expressing GPR84 (membranes are pre-incubated with 0.1 μM GDP for 15 min at 4° C.), 0.1 nM [^35S]GTPγS (Perkin Elmer, NEG030) and 0.5 mg/well PVT-WGA SpA beads (Perkin Elmer, RPNQ0001)]. All components are diluted in assay buffer containing 20 mM HEPES pH 7.4; 5 mM MgCl2; 250 mM NaCl; 0.05% BSA; 75 ug/mL saponin. Reactions are incubated for 90 min at room temperature followed by centrifugation at 2000 rpm during 15 min. Plates are read on a Topcount reader (Perkin Elmer) immediately after centrifugation (readout time, 1 min/well).

T1 sequence (Q9NQS5 whole entry): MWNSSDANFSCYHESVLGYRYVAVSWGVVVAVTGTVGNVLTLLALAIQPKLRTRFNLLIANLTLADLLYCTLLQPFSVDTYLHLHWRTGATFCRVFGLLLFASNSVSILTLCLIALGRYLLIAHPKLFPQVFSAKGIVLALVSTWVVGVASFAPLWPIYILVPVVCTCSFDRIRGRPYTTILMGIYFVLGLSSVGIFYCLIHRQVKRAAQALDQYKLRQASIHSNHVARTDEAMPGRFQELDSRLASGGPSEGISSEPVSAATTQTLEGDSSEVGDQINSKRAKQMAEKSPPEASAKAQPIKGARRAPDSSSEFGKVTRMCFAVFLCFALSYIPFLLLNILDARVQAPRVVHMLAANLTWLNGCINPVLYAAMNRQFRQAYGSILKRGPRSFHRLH

Compound | IC50
C=CCOc1ccc2c(c1)CCn1c-2cc(OCC2COCCO2)nc1=O (stereo not shown) [Compound 1, 9-allyloxy-2-(-1-[1,4]dioxan-2-ylmethoxy)-6,7-dihydro-pyrimido[6,1-a]isoquinolin-4-one] | 101 to 500 nM
CCn1cc(-c2ccc3c(c2)CCn2c-3cc(OCC3COCCO3)nc2=O)cn1 (stereo not shown) [Compound 95, 2-([1,4]dioxan-2-ylmethoxy)-9-(1-ethyl-1H-pyrazol-4-yl)-6,7-dihydro-pyrimido[6,1-a]isoquinolin-4-one] | 501 to 1000 nM
CC(C)(C)c1cnc(COc2ccc3c(c2)CCn2c-3cc(OCC3COCCO3)nc2=O)o1 (stereo not shown) [Compound 76, 9-(5-tert-butyl-oxazol-2-ylmethoxy)-2-([1,4]dioxan-2-ylmethoxy)-6,7-dihydro-pyrimido[6,1-a]isoquinolin-4-one] | 0.01 to 100 nM
O=c1nc(OCC2COCCO2)cc2n1CCc1cc(C#Cc3ncccn3)ccc1-2 (stereo not shown) [Compound 106, 2-([1,4]dioxan-2-ylmethoxy)-9-pyrimidin-2-ylethynyl-6,7-dihydro-pyrimido[6,1-a]isoquinolin-4-one] | 501 to 1000 nM
CC(C)(C)C(O)CCc1ccc2c(c1)CCn1c-2cc(OC[C@@H]2COCCO2)nc1=O (stereo partly drawn) [Compound 146, 2-((S)-1-[1,4]dioxan-2-ylmethoxy)-9-(3-hydroxy-4,4-dimethyl-pentyl)-6,7-dihydro-pyrimido[6,1-a]isoquinolin-4-one] | 0.01 to 100 nM
COCCCc1ccc2c(c1)CCn1c-2cc(OC[C@@H]2COCCO2)nc1=O [Compound 165, 2-((S)-1-[1,4]dioxan-2-ylmethoxy)-9-(3-methoxy-propyl)-6,7-dihydro-pyrimido[6,1-a]isoquinolin-4-one] | 0.01 to 100 nM
CC(C)OCCOc1ccc2c(c1)CCn1c-2cc(OC[C@H]2COCCO2)nc1=O [Compound 173, 2-((R)-1-[1,4]Dioxan-2-ylmethoxy)-9-(2-isopropoxy-ethoxy)-6,7-dihydro-pyrimido[6,1-a]isoquinolin-4-one] | 501 to 1000 nM
CC(C)(O)C#Cc1ccc2c(c1)CCn1c-2cc(OCC2COCCO2)nc1=O (stereo not shown) [Compound 55, 2-([1,4]dioxan-2-ylmethoxy)-9-(3-hydroxy-3-methyl-but-1-ynyl)-6,7-dihydro-pyrimido[6,6,1-a]isoquinolin-4-one] | > 1000 nM
COCCOc1ccc2c(c1)CCn1c-2cc(OC[C@@H]2COCCO2)nc1=O [Compound 129, 2-((S)-1-[1,4]dioxan-2-ylmethoxy)-9-(2-methoxy-ethoxy)-6,7-dihydro-pyrimido[6,1-a]isoquinolin-4-one] | 101 to 500 nM
O=c1nc(OC[C@@H]2COCCO2)cc2n1CCc1cc(OCC3CC3)ccc1-2 [Compound 131, 9-cyclopropylmethoxy-2-((S)-1-[1,4]dioxan-2-ylmethoxy)-6,7-dihydro-pyrimido[6,1-a]isoquinolin-4-one] | 0.01 to 100 nM
CCC(O)(CC)CCc1ccc2c(c1)CCn1c-2cc(OC[C@@H]2COCCO2)nc1=O [Compound 155, 2-((S)-1-[1,4]dioxan-2-ylmethoxy)-9-(3-ethyl-3-hydroxy-pentyl)-6,7-dihydro-pyrimido[6,1-a]isoquinolin-4-one] | 0.01 to 100 nM
O=c1nc(OC[C@@H]2COCCO2)cc2n1CCc1cc(CCCCO)ccc1-2 [Compound 151, 2-((S)-1-[1,4]dioxan-2-ylmethoxy)-9-(4-hydroxy-butyl)-6,7-dihydro-pyrimido[6,1-a]isoquinolin-4-one] | 101 to 500 nM
CCCOCCOc1ccc2c(c1)CCn1c-2cc(OC[C@H]2COCCO2)nc1=O [Compound 172, 2-((R)-1-[1,4]Dioxan-2-ylmethoxy)-9-(2-propoxy-ethoxy)-6,7-dihydro-pyrimido[6,1-a]isoquinolin-4-one] | 101 to 500 nM
CCC(O)CCc1ccc2c(c1)CCn1c-2cc(OC[C@@H]2COCCO2)nc1=O (stereo partly drawn) [Compound 157, 2-((S)-1-[1,4]dioxan-2-ylmethoxy)-9-(3-hydroxy-pentyl)-6,7-dihydro-pyrimido[6,1-a]isoquinolin-4-one] | 101 to 500 nM
COC(C#Cc1ccc2c(c1)CCn1c-2cc(OCC2COCCO2)nc1=O)C(C)C (stereo not shown) [Compound 110, 2-([1,4]dioxan-2-ylmethoxy)-9-(3-methoxy-4-methyl-pent-1-ynyl)-6,7-dihydro-pyrimido[6,1-a]isoquinolin-4-one] | 101 to 500 nM
O=c1nc(OC[C@H]2COCCO2)cc2n1CCc1cc(OCCCC3CC3)ccc1-2 [Compound 164, 9-(3-cyclopropyl-propoxy)-2-((R)-1-[1,4]dioxan-2-ylmethoxy)-6,7-dihydropyrimido[6,1-a]isoquinolin-4-one] | 0.01 to 100 nM
CCC(O)(C#Cc1ccc2c(c1)CCn1c-2cc(OCC2COCCO2)nc1=O)CC (stereo not shown) [Compound 91, 2-([1,4]dioxan-2-ylmethoxy)-9-(3-ethyl-3-hydroxy-pent-1-ynyl)-6,7-dihydro-pyrimido[6,1-a]isoquinolin-4-one] | 101 to 500 nM

Compound | IC50
O=c1nc(OC[C@@H]2COCCO2)cc2n1CCc1cc(COC3COC3)ccc1-2 [Compound 124, 2-((S)-1-[1,4]dioxan-2-ylmethoxy)-9-(oxetan-3-yloxymethyl)-6,7-dihydro-pyrimido[6,1-a]isoquinolin-4-one] | 101 to 500 nM
O=c1nc(OCC2COCCO2)cc2n1CCc1cc(C#CCNCc3cccnc3)ccc1-2 (stereo not shown) [Compound 120, 2-([1,4]dioxan-2-ylmethoxy)-9-{3-[(pyridin-3-ylmethyl)-amino]-prop-1-ynyl}-6,7-dihydro-pyrimido[6,1-a]isoquinolin-4-one] | 101 to 500 nM
CCCCC#Cc1ccc2c(c1)CCn1c-2cc(OCC2COCCO2)nc1=O (stereo not shown) [Compound 84, 2-([1,4]dioxan-2-ylmethoxy)-9-hex-1-ynyl-6,7-dihydro-pyrimido[6,1-a]isoquinolin-4-one] | 0.01 to 100 nM
CCOc1ccc(-c2ccc3c(c2)CCn2c-3cc(OCC3COCCO3)nc2=O)cn1 (stereo not shown) [Compound 61, 2-([1,4]dioxan-2-ylmethoxy)-9-(6-ethoxy-pyridin-3-yl)-6,7-dihydro-pyrimido[6,1-a]isoquinolin-4-one] | 0.01 to 100 nM
Cc1cc(COc2ccc3c(c2)CCn2c-3cc(OCC3COCCO3)nc2=O)on1 (stereo not shown) [Compound 54, 2-([1,4]dioxan-2-ylmethoxy)-9-(3-methyl-isoxazol-5-ylmethoxy)-6,7-dihydro-pyrimido[6,1-a]isoquinolin-4-one] | 101 to 500 nM
O=c1nc(OC[C@H]2COCCO2)cc2n1CCc1cc(COC3CCOCC3)ccc1-2 [Compound 119, 2-((R)-1-[1,4]dioxan-2-ylmethoxy)-9-(tetrahydro-pyran-4-yloxymethyl)-6,7-dihydro-pyrimido[6,1-a]isoquinolin-4-one] | 101 to 500 nM
CCCn1cc(-c2ccc3c(c2)CCn2c-3cc(OCC3COCCO3)nc2=O)cn1 (stereo not shown) [Compound 101, 2-([1,4]dioxan-2-ylmethoxy)-9-(1-propyl-1H-pyrazol-4-yl)-6,7-dihydro-pyrimido[6,1-a]isoquinolin-4-one] | 101 to 500 nM
NC(=O)c1cc(F)cc(-c2ccc3c(c2)CCn2c-3cc(OCC3COCCO3)nc2=O)c1 (stereo not shown) [Compound 51, 3-[2-([1,4]dioxan-2-ylmethoxy)-4-oxo-6,7-dihydro-4H-pyrimido[6,1-a]isoquinolin-9-yl]-5-fluoro-benzamide] | 101 to 500 nM
N#Cc1ccc(-c2ccc3c(c2)CCn2c-3cc(OCC3COCCO3)nc2=O)cn1 (stereo not shown) [Compound 59, 5-[2-([1,4]dioxan-2-ylmethoxy)-4-oxo-6,7-dihydro-4H-pyrimido[6,1-a]isoquinolin-9-yl]-pyridine-2-carbonitrile] | 501 to 1000 nM
C=CCOc1ccc2c(c1)CCn1c-2cc(OC[C@H]2COCCO2)nc1=O [Compound 117, 9-allyloxy-2-((R)-1-[1,4]dioxan-2-ylmethoxy)-6,7-dihydro-pyrimido[6,1-a]isoquinolin-4-one] | 101 to 500 nM
O=c1nc(OC[C@@H]2COCCO2)cc2n1CCc1cc(CCC3(O)CCCC3)ccc1-2 [Compound 166, 2-((S)-1-[1,4]dioxan-2-ylmethoxy)-9-[2-(1-hydroxy-cyclopentyl)-ethyl]-6,7-dihydro-pyrimido[6,1-a]isoquinolin-4-one] | 0.01 to 100 nM
CC(C)CCn1cc(-c2ccc3c(c2)CCn2c-3cc(OCC3COCCO3)nc2=O)cn1 (stereo not shown) [Compound 96, 2-([1,4]dioxan-2-ylmethoxy)-9-[1-(3-methyl-butyl)-1H-pyrazol-4-yl]-6,7-dihydro-pyrimido[6,1-a]isoquinolin-4-one] | 101 to 500 nM
O=c1nc(OCC2COCCO2)cc2n1CCc1cc(C#CCCO)ccc1-2 (stereo not shown) [Compound 45, 2-([1,4]dioxan-2-ylmethoxy)-9-(4-hydroxy-but-1-ynyl)-6,7-dihydro-pyrimido[6,1-a]isoquinolin-4-one] | 501 to 1000 nM
CC(C)C(O)CCc1ccc2c(c1)CCn1c-2cc(OC[C@@H]2COCCO2)nc1=O (stereo partly drawn) [Compound 127, 2-((S)-1-[1,4]dioxan-2-ylmethoxy)-9-(3-hydroxy-4-methyl-pentyl)-6,7-dihydro-pyrimido[6,1-a]isoquinolin-4-one] | 0.01 to 100 nM
N#Cc1ccc(-c2ccc3c(c2)CCn2c-3cc(OCC3COCCO3)nc2=O)cc1 (stereo not shown) [Compound 6, 4-[2-([1,4]dioxan-2-ylmethoxy)-4-oxo-6,7-dihydro-4H-pyrimido[6,1-a]isoquinolin-9-yl]-benzonitrile] | 101 to 500 nM
O=c1nc(OC[C@@H]2COCCO2)cc2n1CCc1cc(NCC3CCCCC3)ccc1-2 [Compound 153, 9-(cyclohexylmethyl-amino)-2-((S)-1-[1,4]dioxan-2-ylmethoxy)-6,7-dihydro-pyrimido[6,1-a]isoquinolin-4-one] | 101 to 500 nM
CC(C)(C)COCc1ccc2c(c1)CCn1c-2cc(OC[C@@H]2COCCO2)nc1=O [Compound 136, 9-(2,2-dimethyl-propoxymethyl)-2-((S)-1-[1,4]dioxan-2-ylmethoxy)-6,7-dihydro-pyrimido[6,1-a]isoquinolin-4-one] | 0.01 to 100 nM
